Measured values from patent US12673944B2, “Compounds having inhibitory activity against glucosylceramide synthase or pharmaceutically acceptable salt thereof, processes for preparing the same, and pharmaceutical compositions comprising the same” (YUHAN CORPORATION, priority 2019, dated 2026).

Experiments:
[1] = system: GM1 production in Jurkat cells; experiment: cells; format: cell-based; conditions: Homo sapiens, Jurkat, 72 h
[2] = target: T1, glucosylceramide synthase (GCS) (Homo sapiens, UniProt Q16739); experiment: GCS enzyme inhibition assay (A549 cell lysate, NBD C6-ceramide, HPLC fluorescence); format: biochemical; conditions: inhibitory activity against GCS, 37° C., 90 minutes
T1 construct: The obtained supernatant was used; host or cells: A549 cells (lysate supernatant after sonication)
T1 sequence (Q16739 1-394): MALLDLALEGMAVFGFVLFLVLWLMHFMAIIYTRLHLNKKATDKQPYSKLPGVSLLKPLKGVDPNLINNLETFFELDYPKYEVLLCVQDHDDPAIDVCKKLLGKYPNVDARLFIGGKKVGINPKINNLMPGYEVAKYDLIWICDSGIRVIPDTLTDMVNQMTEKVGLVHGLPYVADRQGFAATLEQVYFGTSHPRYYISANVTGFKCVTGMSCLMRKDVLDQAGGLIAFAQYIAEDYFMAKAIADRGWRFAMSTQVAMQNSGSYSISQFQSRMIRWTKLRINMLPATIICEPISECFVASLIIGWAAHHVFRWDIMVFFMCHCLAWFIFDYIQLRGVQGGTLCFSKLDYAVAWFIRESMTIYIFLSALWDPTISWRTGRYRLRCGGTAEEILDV
Outline: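 Percent GCS activity was derived from the GlcCer share of Cer plus GlcCer areas, scaled from ibiglustat (0%) to DMSO (100%). Enzyme came from sonicated A549 lysate in 50 mM HEPES pH 7.3; 90 min incubation at 37° C, chloroform/methanol stop and extraction.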

Row | Compound | IC50 [1] | IC50 [2]
1 | COc1ccc(-c2ccc3c(c2)OCC(C)(C)C3NC(=O)O[C@@H]2CN3CCC2CC3)c(C)c1 (stereo partly drawn) [Example 116, (S)-quinuclidin-3-yl (7-(4-methoxy-2-methylphenyl)-3,3-dimethylchroman-4-yl)carbamate] | 1.16 nM | 1.39 nM
2 | CC1(C)COc2cc(-c3ccc(=O)n(Cc4ccccc4)c3)ccc2C1NC(=O)O[C@@H]1CN2CCC1CC2 (stereo partly drawn) [Example 292, (S)-quinuclidin-3-yl (7-(1-benzyl-6-oxo-1,6-dihydropyridin-3-yl)-3,3-dimethylchroman-4-yl)carbamate] | 30.2 nM | 1.38 nM
3 | Cc1ccc(-c2ccc3c(c2)OCC(C)(C)C3NC(=O)O[C@@H]2CN3CCC2CC3)c(F)n1 (stereo partly drawn) [Example 248, (S)-quinuclidin-3-yl (7-(2-fluoro-6-methylpyridin-3-yl)-3,3-dimethylchroman-4-yl)carbamate] | 29.6 nM | 0.86 nM
4 | O=C(NC1CCOc2ccc(-c3ccccc3Cl)cc21)O[C@@H]1CN2CCC1CC2 (stereo partly drawn) [Example 90, (S)-quinuclidin-3-yl (6-(2-chlorophenyl)chroman-4-yl)carbamate] | 141 nM | 4.27 nM
5 | Cc1cc(F)ccc1-c1ccc2c(c1)OCC(C)(C)C2NC(=O)O[C@@H]1CN2CCC1CC2 (stereo partly drawn) [Example 227, (S)-quinuclidin-3-yl (7-(4-fluoro-2-methylphenyl)-3,3-dimethylchroman-4-yl)carbamate] | 4.5 nM | 0.56 nM
6 | O=C(NC1CCOc2cc(-c3cnc4ccccc4c3)ccc21)O[C@@H]1CN2CCC1CC2 (stereo partly drawn) [Example 55, (S)-quinuclidin-3-yl (7-(quinolin-3-yl)chroman-4-yl)carbamate] | 22.3 nM | 3.58 nM
7 | CCOc1ccc(-c2ccc3c(c2)OCC(C)(C)C3NC(=O)O[C@@H]2CN3CCC2CC3)cc1 (stereo partly drawn) [Example 209, (S)-quinuclidin-3-yl (7-(4-ethoxyphenyl)-3,3-dimethylchroman-4-yl)carbamate] | 0.01 nM | 0.34 nM
8 | CCOc1c(C)cc(-c2ccc3c(c2)OCC(C)(C)C3NC(=O)O[C@@H]2CN3CCC2CC3)cc1C (stereo partly drawn) [Example 133, (S)-quinuclidin-3-yl (7-(4-ethoxy-3,5-dimethylphenyl)-3,3-dimethylchroman-4-yl)carbamate] | 0.1 nM | 1.35 nM
9 | O=C(NC1CCOc2ccc(-c3ccc(C(F)(F)F)cc3)cc21)O[C@@H]1CN2CCC1CC2 (stereo partly drawn) [Example 91, (S)-quinuclidin-3-yl (6-(4-(trifluoromethyl)phenyl)chroman-4-yl)carbamate] | 171 nM | 5.38 nM
10 | O=C(NC1CCSc2cc(-c3cccc(C(F)(F)F)c3)ccc21)O[C@@H]1CN2CCC1CC2 (stereo partly drawn) [Example 319, (S)-quinuclidin-3-yl (7-(3-(trifluoromethyl)phenyl)thiochroman-4-yl)carbamate] | 6.7 nM | 1.07 nM
11 | O=C(NC1CCOc2cc(-c3ccc(F)c(C(F)(F)F)c3)ccc21)O[C@@H]1CN2CCC1CC2 (stereo partly drawn) [Example 33, (S)-quinuclidin-3-yl (7-(4-fluoro-3-(trifluoromethyl)phenyl)chroman-4-yl)carbamate] | 10.8 nM | 1.43 nM
12 | Cc1cc(-c2ccc3c(c2)OCC(C)(C)C3NC(=O)O[C@@H]2CN3CCC2CC3)ccc1N1CCOCC1 (stereo partly drawn) [Example 194, (S)-quinuclidin-3-yl (3,3-dimethyl-7-(3-methyl-4-morpholinophenyl)chroman-4-yl)carbamate] | 1.81 nM | 0.6 nM
13 | CC1(C)COc2cc(-c3ccccn3)ccc2C1NC(=O)O[C@@H]1CN2CCC1CC2 (stereo partly drawn) [Example 266, (S)-quinuclidin-3-yl (3,3-dimethyl-7-(pyridin-2-yl)chroman-4-yl)carbamate] | 26.9 nM | 4.07 nM
14 | Cc1ccc(-c2ccc3c(c2)OCCC3NC(=O)O[C@@H]2CN3CCC2CC3)cc1C#N (stereo partly drawn) [Example 78, (S)-quinuclidin-3-yl (7-(3-cyano-4-methylphenyl)chroman-4-yl)carbamate] | 27.3 nM | 1.26 nM
15 | CN(C)c1ccc(-c2ccc3c(c2)OCC(C)(C)C3NC(=O)O[C@@H]2CN3CCC2CC3)cn1 (stereo partly drawn) [Example 251, (S)-quinuclidin-3-yl (7-(6-(dimethylamino)pyridin-3-yl)-3,3-dimethylchroman-4-yl)carbamate] | 17.5 nM | 1.64 nM
16 | CC1(C)COc2cc(-c3cccc(CC#N)c3)ccc2C1NC(=O)O[C@@H]1CN2CCC1CC2 (stereo partly drawn) [Example 281, (S)-quinuclidin-3-yl (7-(3-(cyanomethyl)phenyl)-3,3-dimethylchroman-4-yl)carbamate] | 6.9 nM | 0.65 nM
17 | O=C(NC1CCOc2cc(-c3cccc4[nH]ncc34)ccc21)O[C@@H]1CN2CCC1CC2 (stereo partly drawn) [Example 48, (S)-quinuclidin-3-yl (7-(1H-indazol-4-yl)chroman-4-yl)carbamate] | 42 nM | 6.27 nM
18 | Cc1ccc(-c2ccc3c(c2)OCC(C)(C)C3NC(=O)O[C@@H]2CN3CCC2CC3)cc1Cl (stereo partly drawn) [Example 226, (S)-quinuclidin-3-yl (7-(3-chloro-4-methylphenyl)-3,3-dimethylchroman-4-yl)carbamate] | 1.3 nM | 0.71 nM
19 | COc1cc2c(cc1-c1cccc(F)c1)OCC(C)(C)C2NC(=O)O[C@@H]1CN2CCC1CC2 (stereo partly drawn) [Example 349, (S)-quinuclidin-3-yl (7-(3-fluorophenyl)-6-methoxy-3,3-dimethylchroman-4-yl)carbamate] | 3.2 nM | 0.32 nM
20 | O=C(NC1CCOc2cc(-c3cccc(Cl)c3)ccc21)O[C@@H]1CN2CCC1CC2 (stereo partly drawn) [Example 2, (S)-quinuclidin-3-yl (7-(3-chlorophenyl)chroman-4-yl)carbamate] | 3.47 nM | 0.7 nM
21 | COc1ccc(-c2ccc3c(c2)OCC(C)(C)C3NC(=O)O[C@@H]2CN3CCC2CC3)cc1Cl (stereo partly drawn) [Example 117, (S)-quinuclidin-3-yl (7-(3-chloro-4-methoxyphenyl)-3,3-dimethylchroman-4-yl)carbamate] | 4.43 nM | 1.66 nM
22 | COc1cc2c(cc1-c1cc(C)c(OC)c(C)c1)OCC(C)(C)C2NC(=O)O[C@@H]1CN2CCC1CC2 (stereo partly drawn) [Example 365, (S)-quinuclidin-3-yl (6-methoxy-7-(4-methoxy-3,5-dimethylphenyl)-3,3-dimethylchroman-4-yl)carbamate] | 14.5 nM | 1.2 nM
23 | CCOc1cccc(-c2ccc3c(c2)SCCC3NC(=O)O[C@@H]2CN3CCC2CC3)c1 (stereo partly drawn) [Example 324, (S)-quinuclidin-3-yl (7-(3-ethoxyphenyl)thiochroman-4-yl)carbamate] | 14.4 nM | 1.25 nM
24 | O=C(NC1CCSc2cc(-c3cccc(F)c3)ccc21)O[C@@H]1CN2CCC1CC2 (stereo partly drawn) [Example 317, (S)-quinuclidin-3-yl (7-(3-fluorophenyl)thiochroman-4-yl)carbamate] | 13.8 nM | 2.94 nM
25 | O=C(NC1CCOc2cc(-c3cccc(S(=O)(=O)N4CCCC4)c3)ccc21)O[C@@H]1CN2CCC1CC2 (stereo partly drawn) [Example 60, (S)-quinuclidin-3-yl (7-(3-(pyrrolidin-1-ylsulfonyl)phenyl)chroman-4-yl)carbamate] | 16.5 nM | 2.39 nM
26 | O=C(NC1CCSc2cc(-c3coc4ccccc34)ccc21)O[C@@H]1CN2CCC1CC2 (stereo partly drawn) [Example 328, (S)-quinuclidin-3-yl (7-(benzofuran-3-yl)thiochroman-4-yl)carbamate] | 13.8 nM | 1.18 nM
